Common to all, as to assay type: biochemical
The target in assay [1] is c-Src (Homo sapiens, UniProt P12931). Description: Kinase profile screen: c-Src. Conditions: 50 nM. The text has this: (§1) Experimental Example 2: Study on the Selectivity of the Kinase Profile of the Compound Due to compound's potent inhibitory activity against AXL, we selected one of the compounds, DC621044, to screen 369 kinase profiles in order to investigate the compound's selectivity to the kinase profile.

Assay [2] has as its target receptor tyrosine kinase c-Met (Homo sapiens, UniProt P08581). The assay is described as follows: In vitro c-Met kinase inhibitory activity. To be noted: two values per compound. The text has this: Experimental Example 3: Study of In Vitro c-Met Kinase Inhibitory Activity
Since the screening results of 369 kinase profiles of compound DC621044 has shown that the compound has a certain inhibitory activity on c-Met. We further screened some compounds for their inhibitory activity on c-Met kinase.

For assay [3], the target named is EGFR (Homo sapiens, UniProt P00533). Description: Kinase profile screen: EGFR. Conditions: 50 nM.
Source text: as §1

Assay [4] deals with PLK4/SAK (Homo sapiens, UniProt O00444). Description: Kinase profile screen: PLK4/SAK. Conditions: 50 nM.
Source text: as §1

The target of assay [5] is c-MET (Homo sapiens, UniProt P08581). Description: Kinase profile screen: c-MET. To be noted: 50 nM.
Source text: as §1

For assay [6], the target named is LCK (Homo sapiens, UniProt P06239). The assay is described as follows: Kinase profile screen: LCK. To be noted: 50 nM.
Source text: as §1

The target in assay [7] is TYRO3/SKY (Homo sapiens, UniProt Q06418). The assay is described as follows: Kinase profile screen: TYRO3/SKY. Conditions: 50 nM.
Source text: as §1

Assay [8] has as its system 369 kinases. The assay is described as follows: Selectivity of the kinase profile (369 kinases). Conditions: 369 kinases screened.
Source text: as §1

Assay [9] addresses TRKC (Homo sapiens, UniProt Q16288). Description: Kinase profile screen: TRKC. Conditions: 50 nM.
Source text: as §1

The structures appear in SMILES notation. “And” between values parts separate entries of the source, which are not always exact repeats. Equal entries are not always repeated.

Data on one compound can be found in patent US12497394B2, “Fused-cyclic pyrazolone formamide compound and preparation method therefor, pharmaceutical composition and use thereof” (SHANGHAI INSTITUTE OF MATERIA MEDICA, CHINESE ACADEMY OF …, priority 2018, dated 2025).

Sequence of receptor tyrosine kinase c-Met (P08581 25-1390): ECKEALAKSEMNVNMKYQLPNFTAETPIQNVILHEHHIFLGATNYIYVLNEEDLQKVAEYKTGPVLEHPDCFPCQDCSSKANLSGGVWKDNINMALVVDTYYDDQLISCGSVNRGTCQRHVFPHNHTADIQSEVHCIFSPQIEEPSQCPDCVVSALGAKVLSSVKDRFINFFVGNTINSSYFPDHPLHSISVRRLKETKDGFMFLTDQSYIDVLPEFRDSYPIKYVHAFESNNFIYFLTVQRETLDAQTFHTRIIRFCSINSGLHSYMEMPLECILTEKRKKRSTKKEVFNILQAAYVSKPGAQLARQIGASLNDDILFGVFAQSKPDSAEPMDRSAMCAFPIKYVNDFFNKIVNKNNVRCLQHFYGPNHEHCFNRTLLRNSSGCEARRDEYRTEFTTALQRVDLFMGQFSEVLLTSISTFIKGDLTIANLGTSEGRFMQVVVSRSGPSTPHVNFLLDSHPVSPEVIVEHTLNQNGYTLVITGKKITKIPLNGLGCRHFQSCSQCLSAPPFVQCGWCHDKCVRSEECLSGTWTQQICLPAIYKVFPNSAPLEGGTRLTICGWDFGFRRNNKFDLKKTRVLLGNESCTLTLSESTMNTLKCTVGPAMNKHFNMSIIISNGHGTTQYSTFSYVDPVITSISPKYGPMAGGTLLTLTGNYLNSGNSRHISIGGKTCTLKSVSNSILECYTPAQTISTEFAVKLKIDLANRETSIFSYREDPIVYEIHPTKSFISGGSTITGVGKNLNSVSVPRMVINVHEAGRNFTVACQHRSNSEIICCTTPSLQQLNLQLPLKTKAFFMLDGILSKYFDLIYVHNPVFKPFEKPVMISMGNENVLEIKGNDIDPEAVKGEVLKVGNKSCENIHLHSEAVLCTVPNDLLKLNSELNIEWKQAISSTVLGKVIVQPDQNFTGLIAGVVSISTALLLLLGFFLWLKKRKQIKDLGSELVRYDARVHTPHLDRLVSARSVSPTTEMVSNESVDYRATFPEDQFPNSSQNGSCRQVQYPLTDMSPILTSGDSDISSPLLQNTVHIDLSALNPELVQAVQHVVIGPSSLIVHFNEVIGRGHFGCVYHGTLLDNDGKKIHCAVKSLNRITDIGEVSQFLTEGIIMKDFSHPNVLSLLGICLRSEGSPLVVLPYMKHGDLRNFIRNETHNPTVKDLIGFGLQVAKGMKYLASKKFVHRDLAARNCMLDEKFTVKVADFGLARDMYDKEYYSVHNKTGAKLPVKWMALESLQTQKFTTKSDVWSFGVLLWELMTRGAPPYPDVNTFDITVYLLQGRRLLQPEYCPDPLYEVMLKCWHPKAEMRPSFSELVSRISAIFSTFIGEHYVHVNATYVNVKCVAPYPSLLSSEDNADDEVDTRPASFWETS
Sequence of PLK4/SAK (O00444 whole entry): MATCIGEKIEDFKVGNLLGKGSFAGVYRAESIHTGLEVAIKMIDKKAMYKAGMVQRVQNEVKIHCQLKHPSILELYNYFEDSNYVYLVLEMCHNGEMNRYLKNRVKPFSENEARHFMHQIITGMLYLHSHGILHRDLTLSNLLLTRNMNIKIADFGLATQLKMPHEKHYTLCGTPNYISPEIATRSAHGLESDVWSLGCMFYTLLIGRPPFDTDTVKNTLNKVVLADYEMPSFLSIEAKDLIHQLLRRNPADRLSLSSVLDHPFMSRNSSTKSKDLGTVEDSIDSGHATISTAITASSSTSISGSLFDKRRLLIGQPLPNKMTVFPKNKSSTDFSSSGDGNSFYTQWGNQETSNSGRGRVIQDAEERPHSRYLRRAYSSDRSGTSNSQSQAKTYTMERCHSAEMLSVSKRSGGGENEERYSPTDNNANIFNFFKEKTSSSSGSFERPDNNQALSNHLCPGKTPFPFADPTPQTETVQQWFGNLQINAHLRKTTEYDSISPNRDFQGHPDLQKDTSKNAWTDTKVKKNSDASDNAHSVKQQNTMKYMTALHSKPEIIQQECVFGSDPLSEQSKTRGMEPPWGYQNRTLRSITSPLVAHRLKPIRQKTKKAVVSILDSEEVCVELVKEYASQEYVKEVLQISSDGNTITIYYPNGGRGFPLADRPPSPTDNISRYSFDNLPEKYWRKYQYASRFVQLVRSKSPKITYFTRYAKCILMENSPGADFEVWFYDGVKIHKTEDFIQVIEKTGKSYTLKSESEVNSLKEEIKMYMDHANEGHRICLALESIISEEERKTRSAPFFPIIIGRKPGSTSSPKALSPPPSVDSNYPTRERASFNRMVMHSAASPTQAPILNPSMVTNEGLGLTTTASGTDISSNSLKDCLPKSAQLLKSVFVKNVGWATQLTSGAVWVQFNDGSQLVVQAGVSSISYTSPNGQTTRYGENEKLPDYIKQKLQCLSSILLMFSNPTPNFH
Sequence of c-Src (P12931 whole entry, species assumed): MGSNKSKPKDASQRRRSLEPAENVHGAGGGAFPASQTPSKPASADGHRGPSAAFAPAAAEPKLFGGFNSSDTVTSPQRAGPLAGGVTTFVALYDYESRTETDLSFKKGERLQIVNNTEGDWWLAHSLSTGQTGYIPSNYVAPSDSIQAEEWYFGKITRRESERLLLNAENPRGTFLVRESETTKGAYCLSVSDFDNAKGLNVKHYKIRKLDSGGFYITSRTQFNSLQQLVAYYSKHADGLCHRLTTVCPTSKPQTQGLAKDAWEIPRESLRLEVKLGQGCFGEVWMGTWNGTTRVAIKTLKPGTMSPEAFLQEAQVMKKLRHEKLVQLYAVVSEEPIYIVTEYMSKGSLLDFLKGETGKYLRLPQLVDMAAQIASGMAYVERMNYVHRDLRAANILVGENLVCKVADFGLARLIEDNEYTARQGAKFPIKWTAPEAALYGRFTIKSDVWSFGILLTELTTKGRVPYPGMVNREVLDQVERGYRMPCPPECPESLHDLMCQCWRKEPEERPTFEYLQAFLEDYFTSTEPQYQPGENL
Sequence of c-MET (P08581 25-1390): as the sequence (P08581 25-1390) above
Sequence of TYRO3/SKY (Q06418 41-890): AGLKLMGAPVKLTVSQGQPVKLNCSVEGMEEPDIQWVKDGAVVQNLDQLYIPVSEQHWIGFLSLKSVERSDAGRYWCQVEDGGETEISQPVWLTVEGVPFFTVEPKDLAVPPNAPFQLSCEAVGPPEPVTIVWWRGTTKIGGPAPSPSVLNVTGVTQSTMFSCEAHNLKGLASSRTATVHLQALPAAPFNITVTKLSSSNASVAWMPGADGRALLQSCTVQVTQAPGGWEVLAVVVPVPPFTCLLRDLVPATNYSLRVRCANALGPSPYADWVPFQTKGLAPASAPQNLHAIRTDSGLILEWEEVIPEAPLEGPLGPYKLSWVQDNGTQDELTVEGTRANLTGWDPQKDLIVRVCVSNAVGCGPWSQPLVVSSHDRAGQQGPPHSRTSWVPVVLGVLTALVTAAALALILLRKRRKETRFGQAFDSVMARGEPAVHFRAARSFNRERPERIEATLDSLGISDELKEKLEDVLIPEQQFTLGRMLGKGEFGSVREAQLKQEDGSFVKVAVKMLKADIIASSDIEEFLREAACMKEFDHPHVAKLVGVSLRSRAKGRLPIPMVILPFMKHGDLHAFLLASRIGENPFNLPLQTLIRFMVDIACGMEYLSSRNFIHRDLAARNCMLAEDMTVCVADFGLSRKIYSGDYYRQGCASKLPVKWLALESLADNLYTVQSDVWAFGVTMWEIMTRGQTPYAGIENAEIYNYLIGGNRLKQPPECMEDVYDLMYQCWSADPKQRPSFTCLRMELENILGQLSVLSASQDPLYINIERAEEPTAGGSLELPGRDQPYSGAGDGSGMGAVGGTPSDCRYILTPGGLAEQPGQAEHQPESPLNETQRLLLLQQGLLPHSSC

For the compound `COCCOc1cc2ncnc(Oc3ccc(NC(=O)c4c5n(n(-c6ccc(F)cc6)c4=O)CCCC5)cc3F)c2cc1OCCOC` [DC621044, N-(4-((6,7-bis(2-methoxyethoxy)quinazolin-4-yl)oxy)-3-fluorophenyl)-1-(4-fluorophenyl)-2-oxo-1,2,4,5,6,7-hexahydropyrazolo[1,5-a]pyridine-3-formamide], the inhibition at 0.05 µM in [1] (the first time) amounted to 20%; in assay [1] (the second time), 21%; in [3] (the first time), 17.9%; in [3] (the second time) it was 18.6%; in [4] (the first time), 27.2%; in assay [4] (the second time) it was 29.8%. For the same compound, the inhibition at 0.05 µM is 98.6% in assay [5] (the first time); 99% in [5] (the second time); 52.8% in [6] (the first time); 53.1% in assay [6] (the second time); 41% in [7] (the first time); 41.2% in assay [7] (the second time). Besides, the inhibition at 0.05 µM in assay [9] (the first time) was 23.8%; in assay [9] (the second time), 24.1%. Besides, the “c-Met Inhibitory rate (%)” value in [2] (1 nM, 0.001 µM) is 30.6% and 52.3%; in assay [2] (10 nM, 0.01 µM), 75.1%; in assay [2] (100 nM, 0.1 µM), 100%. The inhibition at 0.01 µM in [2] (10 nM, read-out: c-Met Inhibitory rate (%)) is 69.4%. In addition, the inhibition at 0.1 µM in assay [2] (100 nM, read-out: c-Met Inhibitory rate (%)) is 97.1%. Besides, the “kinase profile selectivity (in words)” value in assay [8] is listed as “good selectivity for AXL kinase”.
